# Data as given in patent US20240391862A1, “(1,4,5-TRISUBSTITUTED-1H-PYRAZOL-3-YL)OXY-2-ALKOXY ALKYL ACIDS AND THEIR DERIVATIVES, THEIR SALTS AND THEIR USE AS HERBICIDAL AGENTS” (Bayer AKtiengesellschaft, priority 2021, published 2024).
# Tests used:
# ZEAMX [1] = assay: Post-emergence herbicidal effect and crop plant compatibility, greenhouse pot test; type: in vivo, Zea mays; conditions: Zea mays, 504 h, one-leaf stage, rated visually after about 3 weeks vs untreated controls; for plant injury at 20 g/ha: read-out: Post-emergence effect at 20 g/ha against ZEAMX in %; for plant injury at 80 g/ha: read-out: Post-emergence effect at 80 g/ha against ZEAMX in %; for plant injury at 320 g/ha: read-out: Post-emergence effect at 320 g/ha against ZEAMX in %
# How it was run: (§1)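 Sandy loam pots, greenhouse. One-leaf stage (2–3 wk after sowing) foliar spray; WP/EC in water + 0.5% additive, 600 l/ha; 20–320 g/ha. Visual score ~3 wk, 0–100% vs untreated.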
# BRSNW = type: in vivo, Brassica napus; conditions: one-leaf stage, rated visually after about 3 weeks vs untreated controls
# From the text: (§2) • ALOMY: Alopecurus myosuroides SETVI: Setaria viridis • AVEFA: Avena fatua POLCO: Fallopia convolvulus • AMARE: Amaranthus retroflexus ECHCG: Echinochloa crus-galli • LOLRJ: Lolium rigidum STEME: Stellaria media • VERPE: Veronica persica MATIN: Tripleurospermum inodorum • DIGSA: Digitaria sanguinalis ABUTH: Abutylon threophrasti • TRZAS: Triticum aestivum VIOTR: Viola tricolor • BRSNW: Brassica napus ZEAMX: Zea mays • PHBPU: Ipomoea purpurea GLXMA: Glycine max • ORYSA: Oryza sativa HORMU: Hordeum murinum
# Seeds of monocotyledonous and dicotyledonous weeds and crop plants are placed in sandy loam in plastic or organic planting pots, covered with soil and cultivated in a greenhouse under controlled growth conditions. 2 to 3 weeks after sowing, the trial plants are treated at the one-leaf stage. The compounds of the invention, formulated in the form of wettable powders (WP) or as emulsion concentrates (EC), are then sprayed onto the green parts of the plants as aqueous suspension or emulsion with addition of 0.5% additive at a water application rate of 600 l/ha (converted). After the test plants have been kept in the greenhouse under optimum growth conditions for about 3 weeks, the activity of the preparations is rated visually in comparison to untreated controls. For example, 100% activity=the plants have died, 0% activity=like control plants.
# Tables 20a to 38c below show the effects/crop compatibilities of selected compounds of the general formula (I) on various harmful plants at an application rate corresponding to 20 to 320 g/ha, which were obtained by the trial procedure specified above.
# VIOTR [2] = assay: Post-emergence herbicidal effect, greenhouse pot test; type: in vivo, Viola tricolor; conditions: Viola tricolor, 504 h, 320 g/ha, read-out: Post-emergence effect against VIOTR in %
# How it was run: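 Weeds sown in sandy loam, greenhouse-grown 2–3 weeks, then sprayed at one-leaf stage with WP or EC formulations in water plus 0.5% additive at 600 l/ha. Rates 20 to 320 g/ha. Visual rating after about 3 weeks versus untreated controls (100% = plants dead, 0% = like control).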
# TRZAS = assay: Post-emergence herbicidal effect and crop plant compatibility, greenhouse pot test; type: in vivo, Triticum aestivum; conditions: Triticum aestivum, 504 h, 20 g/ha, one-leaf stage, rated visually after about 3 weeks vs untreated controls, read-out: Post-emergence effect at 20 g/ha against TRZAS in %
# How it was run: as §1
# PHBPU = assay: Pre-emergence herbicidal effect, greenhouse pot test; type: in vivo, Ipomoea purpurea; conditions: 320 g/ha, scored visually after about 3 weeks vs untreated controls
# From the text: (§3) Seeds of monocotyledonous and dicotyledonous weed plants and crop plants are placed in plastic or organic planting pots and covered with soil. The compounds of the invention, formulated in the form of wettable powders (WP) or as emulsion concentrates (EC), are then applied to the surface of the covering soil as aqueous suspension or emulsion with addition of 0.5% additive at a water application rate equivalent to 600 l/ha. After the treatment, the pots are placed in a greenhouse and kept under good growth conditions for the trial plants. After about 3 weeks, the effect of the preparations is scored visually in comparison with untreated controls as percentages. For example, 100% activity=the plants have died, 0% activity=like control plants.
# (§4) Tables 1a to 19c below show the effects/crop compatibilities of selected compounds of the general formula (I) on various harmful plants at an application rate corresponding to 20 to 320 g/ha, which were obtained by the trial procedure specified above.
# as §2
# ECHCG = assay: as above; type: in vivo, Echinochloa crus-galli; conditions: scored visually after about 3 weeks vs untreated controls
# From the text: as §3, §4, §2
# KCHSC = assay: as above; type: in vivo; conditions: scored visually after about 3 weeks vs untreated controls
# From the text: as §3, with “control plants. Tables 1a to 19c below show the effects/crop compatibilities of selected compounds of the general formula (I) on various harmful plants at an application rate corresponding to 20 to 320 g/ha, which were obtained by the trial procedure specified above.” for “control plants.”
# POLCO = assay: as above; type: in vivo, Fallopia convolvulus; conditions: scored visually after about 3 weeks vs untreated controls
# From the text: as §3, §4, §2
# AVEFA = assay: as above; type: in vivo, Avena fatua; conditions: scored visually after about 3 weeks vs untreated controls
# From the text: as §3, §4, §2
# VIOTR [3] = assay: as above; type: in vivo, Viola tricolor; conditions: scored visually after about 3 weeks vs untreated controls
# From the text: as §3, §4, §2
# ALOMY = assay: as above; type: in vivo, Alopecurus myosuroides; conditions: scored visually after about 3 weeks vs untreated controls
# From the text: as §3, §4, §2
# ABUTH = assay: as above; type: in vivo, Abutilon theophrasti; conditions: scored visually after about 3 weeks vs untreated controls
# From the text: as §3, §4, §2
# LOLRI = assay: as above; type: in vivo, Lolium rigidum; conditions: scored visually after about 3 weeks vs untreated controls
# From the text: as §3, §4, §2
# DIGSA = assay: as above; type: in vivo, Digitaria sanguinalis; conditions: scored visually after about 3 weeks vs untreated controls
# From the text: as §3, §4, §2
# MATIN = assay: as above; type: in vivo, Tripleurospermum inodorum; conditions: 320 g/ha, scored visually after about 3 weeks vs untreated controls
# From the text: as §3, §4, §2
# SETVI = assay: as above; type: in vivo, Setaria viridis; conditions: scored visually after about 3 weeks vs untreated controls
# How it was run: (§5)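 Seeds sown in pots and covered with soil; WP- or EC-formulated compounds applied to the soil surface as aqueous suspension/emulsion with 0.5% additive at 600 l/ha water, 20 to 320 g/ha. Greenhouse growth; visual % effect vs untreated controls after about 3 weeks (100% = plants died, 0% = like control).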
# ZEAMX [4] = assay: Pre-emergence herbicidal effect and crop plant compatibility, greenhouse pot test; type: in vivo, Zea mays; conditions: 20 g/ha, scored visually after about 3 weeks vs untreated controls
# How it was run: as §5
# AMARE = assay: Pre-emergence herbicidal effect, greenhouse pot test; type: in vivo, Amaranthus retroflexus; conditions: scored visually after about 3 weeks vs untreated controls
# How it was run: as §5
structure (smiles),measurement,setting,value
"CCOC(Oc1nn(-c2ccccc2F)c(-c2ccc(F)nc2)c1Br)C(=O)O (racemic) [Example I-51, (2RS)-{[4-Bromo-1-(2-fluorophenyl)-5-(6-fluoropyridin-3-yl)-1H-pyrazol-3-yl]oxy}(ethoxy)acetic acid]",plant injury at 20 g/ha,ZEAMX [1],0%
same,plant injury at 80 g/ha,ZEAMX [1],0%
same,plant injury at 320 g/ha,ZEAMX [1],0%
same,Post-emergence effect at 320 g/ha against BRSNW in %,BRSNW,0%
same,pest or weed control at 320 g/ha,VIOTR [2],80%
same,"percent crop injury (phytotoxicity) to wheat, post-emergence at 20 g/ha",TRZAS,0%
"CCOC(Oc1nn(-c2ccccc2F)c(-c2ccc(F)nc2)c1Br)C(=O)O (single isomer, unassigned) [Example I-65, (2R*)-{[4-Bromo-1-(2-fluorophenyl)-5-(6-fluoropyridin-3-yl)-1H-pyrazol-3-yl]oxy}(ethoxy)acetic acid]",plant injury at 20 g/ha,ZEAMX [1],0%
same,plant injury at 80 g/ha,ZEAMX [1],0%
same,plant injury at 320 g/ha,ZEAMX [1],0%
same,Post-emergence effect at 320 g/ha against BRSNW in %,BRSNW,0%
same,"percent crop injury (phytotoxicity) to wheat, post-emergence at 20 g/ha",TRZAS,0%
"COC(=O)CCOC(=O)C(OC)Oc1nn(-c2ncccc2F)c(-c2cncc(F)c2)c1C1CC1 (single isomer, unassigned) [Example I-76]",Pre-emergence effect at 320 g/ha against PHBPU in %,PHBPU,90%
same,Pre-emergence effect at 80 g/ha against ECHCG in %,ECHCG; 80 g/ha,90%
same,Pre-emergence effect at 320 g/ha against ECHCG in %,ECHCG; 320 g/ha,100%
same,Pre-emergence effect at 20 g/ha against KCHSC in %,KCHSC; 20 g/ha,90%
same,Pre-emergence effect at 80 g/ha against KCHSC in %,KCHSC; 80 g/ha,90%
same,Pre-emergence effect at 320 g/ha against KCHSC in %,KCHSC; 320 g/ha,100%
same,Pre-emergence effect at 80 g/ha against POLCO in %,POLCO; 80 g/ha,90%
same,Pre-emergence effect at 320 g/ha against POLCO in %,POLCO; 320 g/ha,90%
same,Pre-emergence effect at 80 g/ha against AVEFA in %,AVEFA; 80 g/ha,90%
same,Pre-emergence effect at 320 g/ha against AVEFA in %,AVEFA; 320 g/ha,100%
same,Pre-emergence effect at 80 g/ha against VIOTR in %,VIOTR [3]; 80 g/ha,100%
same,Pre-emergence effect at 320 g/ha against VIOTR in %,VIOTR [3]; 320 g/ha,100%
same,Pre-emergence effect at 80 g/ha against ALOMY in %,ALOMY; 80 g/ha,90%
same,Pre-emergence effect at 320 g/ha against ALOMY in %,ALOMY; 320 g/ha,90%
same,Pre-emergence effect at 80 g/ha against ABUTH in %,ABUTH; 80 g/ha,90%
same,Pre-emergence effect at 320 g/ha against ABUTH in %,ABUTH; 320 g/ha,90%
same,Pre-emergence effect at 80 g/ha against LOLRI in %,LOLRI; 80 g/ha,90%
same,Pre-emergence effect at 320 g/ha against LOLRI in %,LOLRI; 320 g/ha,100%
same,Pre-emergence effect at 80 g/ha against DIGSA in %,DIGSA; 80 g/ha,80%
same,Pre-emergence effect at 320 g/ha against DIGSA in %,DIGSA; 320 g/ha,90%
same,Pre-emergence effect at 320 g/ha against MATIN in %,MATIN,90%
same,Pre-emergence effect at 80 g/ha against SETVI in %,SETVI; 80 g/ha,90%
same,Pre-emergence effect at 320 g/ha against SETVI in %,SETVI; 320 g/ha,100%
same,Pre-emergence effect at 20 g/ha against ZEAMX in %,ZEAMX [4],20%
same,Pre-emergence effect at 20 g/ha against AMARE in %,AMARE; 20 g/ha,80%
same,Pre-emergence effect at 80 g/ha against AMARE in %,AMARE; 80 g/ha,100%
same,Pre-emergence effect at 320 g/ha against AMARE in %,AMARE; 320 g/ha,100%
COC(Oc1nn(-c2ncccc2F)c(-c2ccc(F)nc2)c1Br)C(=O)O (stereo not shown) [Example I-45],plant injury at 20 g/ha,ZEAMX [1],0%
same,plant injury at 80 g/ha,ZEAMX [1],0%
same,plant injury at 320 g/ha,ZEAMX [1],0%
same,Post-emergence effect at 320 g/ha against BRSNW in %,BRSNW,0%
same,"percent crop injury (phytotoxicity) to wheat, post-emergence at 20 g/ha",TRZAS,0%
